Assay results published in article PMC4331048 (Molecular and cellular biochemistry, 2011).

Target: CK2α (Homo sapiens, UniProt P68400)
Assay: In vitro kinase assay, [γ-32P]ATP phosphorylation of purified CSQ2 by pure CK2α

Sequence of CK2α (P68400 whole entry): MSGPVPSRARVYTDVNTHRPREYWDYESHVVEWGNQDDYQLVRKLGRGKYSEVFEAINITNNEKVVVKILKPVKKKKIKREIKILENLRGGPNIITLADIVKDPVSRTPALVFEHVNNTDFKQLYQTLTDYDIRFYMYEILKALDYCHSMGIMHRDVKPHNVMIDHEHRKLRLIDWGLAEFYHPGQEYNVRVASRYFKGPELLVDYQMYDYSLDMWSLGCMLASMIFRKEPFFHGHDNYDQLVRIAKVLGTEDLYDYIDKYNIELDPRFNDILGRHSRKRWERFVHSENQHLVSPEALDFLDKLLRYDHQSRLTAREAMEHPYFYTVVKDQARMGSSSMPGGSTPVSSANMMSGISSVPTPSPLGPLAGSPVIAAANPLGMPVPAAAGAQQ

IC50: ~10 µM
SMILES: O=C(O)/C=C/c1cc(Br)c(Br)c(Br)c1Br [TBCA]
